Results as given in PubChem BioAssay (NCI).
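Cultured in 96-well plates, cells were exposed to test compound for 48 hours across five concentrations. TGI: concentration producing complete growth inhibition.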

Key:
Test in all cases: NCI-60 cell line screen, 48 h
UACC-62 melanoma = tested on: UACC-62 melanoma
UACC-257 melanoma = tested on: UACC-257 melanoma
SK-MEL-28 melanoma = tested on: SK-MEL-28 melanoma
NCI-H226 lung = tested on: NCI-H226 lung
HT29 colon = tested on: HT29 colon
HOP-62 NSCLC = tested on: HOP-62 NSCLC
RXF 393 renal = tested on: RXF 393 renal
HCT-15 colon = tested on: HCT-15 colon
SW-620 colon = tested on: SW-620 colon
LOX IMVI melanoma = tested on: LOX IMVI melanoma
PC-3 prostate = tested on: PC-3 prostate
OVCAR-8 ovarian = tested on: OVCAR-8 ovarian
M14 melanoma = tested on: M14 melanoma
SK-MEL-2 melanoma = tested on: SK-MEL-2 melanoma
SNB-75 CNS = tested on: SNB-75 CNS
SF-539 CNS = tested on: SF-539 CNS
SN12C renal = tested on: SN12C renal
MOLT-4 leukemia = tested on: MOLT-4 leukemia
ACHN renal = tested on: ACHN renal
CAKI-1 renal = tested on: CAKI-1 renal
MDA-MB-435 = tested on: MDA-MB-435
NCI-H460 lung = tested on: NCI-H460 lung
CCRF-CEM leukemia = tested on: CCRF-CEM leukemia
U251 CNS = tested on: U251 CNS
NCI-H23 lung = tested on: NCI-H23 lung
COLO 205 colon = tested on: COLO 205 colon
TK-10 renal = tested on: TK-10 renal
IGROV1 ovarian = tested on: IGROV1 ovarian
SK-MEL-5 melanoma = tested on: SK-MEL-5 melanoma
KM12 colon = tested on: KM12 colon
NCI/ADR-RES ovarian = tested on: NCI/ADR-RES ovarian
SF-295 CNS = tested on: SF-295 CNS
OVCAR-5 ovarian = tested on: OVCAR-5 ovarian
UO-31 renal = tested on: UO-31 renal
SF-268 CNS = tested on: SF-268 CNS
RPMI-8226 leukemia = tested on: RPMI-8226 leukemia
K-562 leukemia = tested on: K-562 leukemia
OVCAR-4 ovarian = tested on: OVCAR-4 ovarian
NCI-H522 lung = tested on: NCI-H522 lung
DU-145 prostate = tested on: DU-145 prostate
OVCAR-3 ovarian = tested on: OVCAR-3 ovarian
EKVX NSCLC = tested on: EKVX NSCLC
MALME-3M melanoma = tested on: MALME-3M melanoma
BT-549 breast = tested on: BT-549 breast
786-0 renal = tested on: 786-0 renal
SR leukemia = tested on: SR leukemia
SK-OV-3 ovarian = tested on: SK-OV-3 ovarian
HOP-92 NSCLC = tested on: HOP-92 NSCLC
SNB-19 CNS = tested on: SNB-19 CNS
A549 NSCLC = tested on: A549 NSCLC
MDA-MB-231 breast = tested on: MDA-MB-231 breast
MCF7 breast = tested on: MCF7 breast
HCC-2998 colon = tested on: HCC-2998 colon
HCT-116 colon = tested on: HCT-116 colon

## CCCCC(C)(C/C=C/[C@@H]1[C@@H](C(O)CCCCCC(=O)OC)C(=O)C[C@H]1O[Si](C)(C)C(C)(C)C)O[Si](C)(C)C (some centres undefined)
UACC-62 melanoma
  TGI: > 100 µM
UACC-257 melanoma
  TGI: > 100 µM
SK-MEL-28 melanoma
  TGI: > 100 µM
NCI-H226 lung
  TGI: > 100 µM
HT29 colon
  TGI: > 100 µM
HOP-62 NSCLC
  TGI: > 100 µM
RXF 393 renal
  TGI: > 100 µM
HCT-15 colon
  TGI: > 100 µM
SW-620 colon
  TGI: > 100 µM
LOX IMVI melanoma
  TGI: > 100 µM
PC-3 prostate
  TGI: > 100 µM
OVCAR-8 ovarian
  TGI: > 100 µM
M14 melanoma
  TGI: > 100 µM
SK-MEL-2 melanoma
  TGI: > 100 µM
SNB-75 CNS
  TGI: > 100 µM
SF-539 CNS
  TGI: > 100 µM
SN12C renal
  TGI: > 100 µM
MOLT-4 leukemia
  TGI: 59.4 µM
ACHN renal
  TGI: > 100 µM
CAKI-1 renal
  TGI: 78.1 µM
MDA-MB-435
  TGI: > 100 µM
NCI-H460 lung
  TGI: > 100 µM
CCRF-CEM leukemia
  TGI: 85.4 µM
U251 CNS
  TGI: > 100 µM
NCI-H23 lung
  TGI: > 100 µM
COLO 205 colon
  TGI: > 100 µM
TK-10 renal
  TGI: > 100 µM
IGROV1 ovarian
  TGI: > 100 µM
SK-MEL-5 melanoma
  TGI: > 100 µM
KM12 colon
  TGI: > 100 µM
NCI/ADR-RES ovarian
  TGI: > 100 µM
SF-295 CNS
  TGI: > 100 µM
OVCAR-5 ovarian
  TGI: > 100 µM
UO-31 renal
  TGI: > 100 µM
SF-268 CNS
  TGI: > 100 µM
RPMI-8226 leukemia
  TGI: > 100 µM
K-562 leukemia
  TGI: > 100 µM
OVCAR-4 ovarian
  TGI: > 100 µM
NCI-H522 lung
  TGI: > 100 µM
DU-145 prostate
  TGI: > 100 µM
OVCAR-3 ovarian
  TGI: > 100 µM
EKVX NSCLC
  TGI: > 100 µM
MALME-3M melanoma
  TGI: > 100 µM
BT-549 breast
  TGI: > 100 µM
786-0 renal
  TGI: > 100 µM
SR leukemia
  TGI: > 100 µM
SK-OV-3 ovarian
  TGI: > 100 µM
HOP-92 NSCLC
  TGI: > 100 µM
SNB-19 CNS
  TGI: > 100 µM
A549 NSCLC
  TGI: > 100 µM
MDA-MB-231 breast
  TGI: > 100 µM
MCF7 breast
  TGI: > 100 µM
HCC-2998 colon
  TGI: > 100 µM
HCT-116 colon
  TGI: > 100 µM
